Test results taken from PubChem BioAssay AID2060492 (Molecular Pharmacology Branch, DTP, NCI, 2025).

Test system: 695427-040-R-J1-PDC complex spheroids, viability percent T/C
Assay: Anticancer human tumor 695427-040-R-J1-PDC patient-derived colon adenocarcinoma cell line growth inhibition [GQUAD]
Conditions: for IC50: curve of first compound; for viability, T/C: stronger effect = lower value
Procedure, shortened: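 Tumor cells were grown as complex spheroids with HUVEC endothelial cells and mesenchymal stem cells as stroma. G-quadruplex stabilizers were combined with targeted agents over half-log dilutions from near the clinical Cmax, or from 10 microM.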

[1] = second compound 0.0316 µM, first compound 0.0316 µM
[2] = second compound 0.0316 µM, first compound 0.1 µM
[3] = second compound 0.0316 µM, first compound 0.316 µM
[4] = second compound 0.0316 µM, first compound 1 µM
[5] = second compound 0.0316 µM, first compound 3.16 µM
[6] = second compound 0.0316 µM, first compound 10 µM
[7] = second compound 0.1 µM, first compound 0.0316 µM
[8] = second compound 0.1 µM, first compound 0.1 µM
[9] = second compound 0.1 µM, first compound 0.316 µM
[10] = second compound 0.1 µM, first compound 1 µM
[11] = second compound 0.1 µM, first compound 3.16 µM
[12] = second compound 0.1 µM, first compound 10 µM
[13] = second compound 0.316 µM, first compound 0.0316 µM
[14] = second compound 0.316 µM, first compound 0.1 µM
[15] = second compound 0.316 µM, first compound 0.316 µM
[16] = second compound 0.316 µM, first compound 1 µM
[17] = second compound 0.316 µM, first compound 3.16 µM
[18] = second compound 0.316 µM, first compound 10 µM
[19] = second compound 1 µM, first compound 0.0316 µM
[20] = second compound 1 µM, first compound 0.1 µM
[21] = second compound 1 µM, first compound 0.316 µM
[22] = second compound 1 µM, first compound 1 µM
[23] = second compound 1 µM, first compound 3.16 µM
[24] = second compound 1 µM, first compound 10 µM
[25] = second compound 3.16 µM, first compound 0.0316 µM
[26] = second compound 3.16 µM, first compound 0.1 µM
[27] = second compound 3.16 µM, first compound 0.316 µM
[28] = second compound 3.16 µM, first compound 1 µM
[29] = second compound 3.16 µM, first compound 3.16 µM
[30] = second compound 3.16 µM, first compound 10 µM
[31] = second compound 10 µM, first compound 0.0316 µM
[32] = second compound 10 µM, first compound 0.1 µM
[33] = second compound 10 µM, first compound 0.316 µM
[34] = second compound 10 µM, first compound 1 µM
[35] = second compound 10 µM, first compound 3.16 µM
[36] = second compound 10 µM, first compound 10 µM
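Note: spheroids exposed to compounds for seven days before readout.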

For CC1COCCN1c1cc(C2(S(C)(=N)=O)CC2)nc(-c2ccnc3[nH]ccc23)n1 (centres undefined) + Cc1[nH]c2ccc(F)cc2c1-c1nc2c3cccnc3c3ncccc3c2[nH]1, the IC50 (second compound 0.0316 µM) was greater than 10 µM, the IC50 (second compound 0.1 µM) was greater than 10 µM and the IC50 (second compound 0.316 µM) was greater than 10 µM. It also gave an IC50 (second compound 1 µM) greater than 10 µM, an IC50 (second compound 3.16 µM) greater than 10 µM and an IC50 (second compound 10 µM) greater than 10 µM. For the same compound, the viability, T/C [1] was 99.3%, the viability, T/C [2] was 101% and the viability, T/C [3] was 87.6%. It also gave a viability, T/C [4] of 73.9%, a viability, T/C [5] of 76.9% and a viability, T/C [6] of 57.4%. It also gave a viability, T/C [7] of 103%, a viability, T/C [8] of 72.5% and a viability, T/C [9] of 102%. It also gave a viability, T/C [10] of 89.3%, a viability, T/C [11] of 73.2% and a viability, T/C [12] of 62.2%. For the same compound, the viability, T/C [13] was 87.9%, the viability, T/C [14] was 80.1% and the viability, T/C [15] was 84.8%. For the same compound, the viability, T/C [16] was 84.9%, the viability, T/C [17] was 74.6% and the viability, T/C [18] was 61.5%. For the same compound, the viability, T/C [19] was 70.5%, the viability, T/C [20] was 71.7% and the viability, T/C [21] was 70.3%. For the same compound, the viability, T/C [22] was 97%, the viability, T/C [23] was 83% and the viability, T/C [24] was 65.8%. It also gave a viability, T/C [25] of 61.9%, a viability, T/C [26] of 84% and a viability, T/C [27] of 75.9%. For the same compound, the viability, T/C [28] was 81.8%, the viability, T/C [29] was 71.9% and the viability, T/C [30] was 61.2%. It also gave a viability, T/C [31] of 66%, a viability, T/C [32] of 67.9% and a viability, T/C [33] of 80.8%. For the same compound, the viability, T/C [34] was 82%, the viability, T/C [35] was 67.6% and the viability, T/C [36] was 54.3%.

O=c1[nH]cc(F)c(=O)[nH]1 + Cc1cnc(CNC(=O)c2c(=O)c3ccc(N4CCCN(C)CC4)nc3n3c2sc2ccccc23)cn1 gave an IC50 (second compound 0.0316 µM) greater than 10 µM, an IC50 (second compound 0.1 µM) greater than 10 µM and an IC50 (second compound 0.316 µM) greater than 10 µM. It also gave an IC50 (second compound 1 µM) greater than 10 µM, an IC50 (second compound 3.16 µM) of less than 0.0316 µM and an IC50 (second compound 10 µM) of less than 0.0316 µM. For the same compound, the viability, T/C [1] was 108%, the viability, T/C [2] was 70.6% and the viability, T/C [3] was 70.8%. For the same compound, the viability, T/C [4] was 69.7%, the viability, T/C [5] was 76% and the viability, T/C [6] was 105%. It also gave a viability, T/C [7] of 94.2%, a viability, T/C [8] of 79.4% and a viability, T/C [9] of 72.4%. It also gave a viability, T/C [10] of 74.9%, a viability, T/C [11] of 94.2% and a viability, T/C [12] of 97.5%. The viability, T/C [13] was 83.6%, the viability, T/C [14] was 67.5% and the viability, T/C [15] was 80.9%. For the same compound, the viability, T/C [16] was 67.9%, the viability, T/C [17] was 86.4% and the viability, T/C [18] was 85.8%. The viability, T/C [19] was 77.8%, the viability, T/C [20] was 58% and the viability, T/C [21] was 63.8%. It also gave a viability, T/C [22] of 71.4%, a viability, T/C [23] of 80.1% and a viability, T/C [24] of 77.6%. It also gave a viability, T/C [25] of 44.9%, a viability, T/C [26] of 53.1% and a viability, T/C [27] of 59.9%. The viability, T/C [28] was 45.3%, the viability, T/C [29] was 72.2% and the viability, T/C [30] was 54.3%. It also gave a viability, T/C [31] of 28.3%, a viability, T/C [32] of 54.2% and a viability, T/C [33] of 48.8%. The viability, T/C [34] was 43.8%, the viability, T/C [35] was 54.6% and the viability, T/C [36] was 49.9%.
